Reference: US20040219112A1, “Method of whitening teeth, tooth whitening composition and tooth whitening set” (priority 2001, published 2004)

Legend:
[1] = Whitening of extracted human tooth enclosed in PP non-woven sheet coated with gel of 50% whitening compound, L*a*b* (CIE) whiteness; design: key to Effect (3): whiteness (Δ|L|+Δ|b|) of the tooth / Effect (4): prolonged effect, whiteness (Δ|L|+Δ|b|) of the tooth: whiteness = Δ|L|+Δ|b| (CIE L*a*b*), change before vs after treatment; conditions: gel of 50% compound; for Effect (4): prolonged effect, whiteness (Δ|L|+Δ|b|) of the tooth / Effect (3): whiteness (Δ|L|+Δ|b|) of the tooth: 0.5% jellan gum, 49.5% water; for Effect (4): prolonged effect, whiteness (Δ|L|+Δ|b|) of the tooth: measured after immersion in water (10 ml, 37° C.) for 1 hour; for Effect (3): whiteness (Δ|L|+Δ|b|) of the tooth: measured immediately after 1 hour at 37° C.; for Result (prolonged effect rating): rating of prolonged effect after 1 hour in water
Description: (§1) An experiment was conducted as follows with an extracted human tooth which had previously been examined for L*a*b* values (CIE). The tooth was enclosed in a sheet of non-woven fabric of PP coated with a gel composed of 50% of the whitening compound specified below, 0.5% of jellan gum, and 49.5% of water, and the resulting object was allowed to stand at 37° C. for 1 hour in a closed glass bottle. The tooth was examined again for L*a*b* values (CIE). The ΔL and Δb values measured before and after treatment were used to calculate the whiteness (Δ|L|+Δ|b|) of the tooth, which is a measure of the effect (3).
(§2) The tooth which had been processed as mentioned above was again allowed to stand at 37° C. for 1 hour in a closed glass bottle containing 10 ml of water at 37° C. Then, the tooth was examined again for L*a*b* values (CIE). The ΔL and Δb values measured before and after treatment were used to calculate the whiteness (Δ|L|+Δ|b|) of the tooth, which is a measure of the prolonged effect (4).

[2] = Whitening of extracted human tooth enclosed in absorbent cotton impregnated with liquid compound (100%), L*a*b* (CIE) whiteness; conditions: compound conc. 100%; for Effect (2): prolonged effect, whiteness (Δ|L|+Δ|b|) of the tooth: measured after immersion in water (10 ml, 37° C.) for 1 hour; for Effect (1): whiteness (Δ|L|+Δ|b|) of the tooth: measured immediately after immersion in the compound for 1 hour at 37° C.; for Result (prolonged effect rating): rating of prolonged effect after 1 hour in water
Description: as §1, with “absorbent cotton impregnated” for “a sheet of non-woven fabric of PP coated”, “liquid” for “gel composed of 50% of the whitening”, “(in 100% concentration) shown” for “specified”, “below,” for “below, 0.5% of jellan gum, and 49.5% of water,”, “(1).” for “(3).”
as §2, with “(2).” for “(4).”

Compound	Effect (4): prolonged effect, whiteness (Δ|L|+Δ|b|) of the tooth [1]	Effect (3): whiteness (Δ|L|+Δ|b|) of the tooth [1]	Result (prolonged effect rating) [1]	Effect (2): prolonged effect, whiteness (Δ|L|+Δ|b|) of the tooth [2]	Effect (1): whiteness (Δ|L|+Δ|b|) of the tooth [2]	Result (prolonged effect rating) [2]
Polyethylene glycol #200 [PEG #200]	0.9	0.6	◯ (◯ denotes a prolonged effect with a value larger than 0.5)	4.8	12.5	⊚ (⊚ denotes a significant prolonged effect with a value larger than 1)
Polyethylene glycol #400 [PEG #400]	0.6	0.7	◯ (◯ denotes a prolonged effect with a value larger than 0.5)	1.5	8.1	⊚ (⊚ denotes a significant prolonged effect with a value larger than 1)
OCCOCCO [Diethylene glycol]	1.1	1.3	⊚ (⊚ denotes a significant prolonged effect with a value larger than 1)	2.6	14.4	⊚ (⊚ denotes a significant prolonged effect with a value larger than 1)
CC(C)O [Isopropyl alcohol]	0.5	1.1	◯ (◯ denotes a prolonged effect with a value larger than 0.5)	8.3	15.8	⊚ (⊚ denotes a significant prolonged effect with a value larger than 1)
CC(O)CO (stereo not drawn) [Propylene glycol]	1.0	1.0	⊚ (⊚ denotes a significant prolonged effect with a value larger than 1)	2.8	8.4	⊚ (⊚ denotes a significant prolonged effect with a value larger than 1)
OCCO [Ethylene glycol]	0.7	1.6	◯ (◯ denotes a prolonged effect with a value larger than 0.5)	2.6	9.3	⊚ (⊚ denotes a significant prolonged effect with a value larger than 1)
PEG #300	0.8	1.8	◯ (◯ denotes a prolonged effect with a value larger than 0.5)	3.7	10.7	⊚ (⊚ denotes a significant prolonged effect with a value larger than 1)
CC(O)CCO (stereo not drawn) [1,3-butylene glycol]	0.5	0.9	◯ (◯ denotes a prolonged effect with a value larger than 0.5)	5.6	11.3	⊚ (⊚ denotes a significant prolonged effect with a value larger than 1)
CCO [Ethanol]	1.9	1.5	⊚ (⊚ denotes a significant prolonged effect with a value larger than 1)	3.0	12.8	⊚ (⊚ denotes a significant prolonged effect with a value larger than 1)
Polyethylene glycol #600 [PEG #600]	0.8	0.7	◯ (◯ denotes a prolonged effect with a value larger than 0.5)	0.6	12.0	◯ (◯ denotes a prolonged effect with a value larger than 0.5)
